Where “and” joins values, the source holds several entries; their conditions need not be identical. Equal values may be shown once.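 Cells were grown in 96-well plates and exposed to each compound for 48 hours at five concentrations; endpoints were interpolated linearly between bracketing concentrations, or set to the highest concentration if not reached. GI50 marks 50% less growth. The concentration for full growth arrest is given as TGI.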
Columns and labels:
Assay in all cases: DTP human tumour cell line panel, 48 h
[1] = system: HCT-116 colon
[2] = system: ACHN renal
[3] = system: LOX IMVI melanoma
[4] = system: OVCAR-4 ovarian
[5] = system: SNB-19 CNS
[6] = system: EKVX NSCLC
[7] = system: HOP-92 NSCLC
[8] = system: K-562 leukemia
[9] = system: SR leukemia
[10] = system: RPMI-8226 leukemia
[11] = system: NCI-H522 lung
[12] = system: M14 melanoma
[13] = system: KM12 colon
[14] = system: U251 CNS
[15] = system: MDA-MB-435

Compound | TGI [1] | TGI [2] | TGI [3] | TGI [4] | TGI [5] | TGI [6] | TGI [7] | TGI [8] [µM] | TGI [9] [µM] | TGI [10] | TGI [11] | TGI [12] | TGI [13] | TGI [14] | GI50 [8] [µM] | GI50 [10] [µM] | GI50 [14] | GI50 [5] [µM] | GI50 [9] [µM] | TGI [15] [µM]
CCOc1ccc(N(CC(=O)N2CC(=O)Nc3cc(C)c(C)cc32)C(C)=O)cc1 | > 100 µM | > 100 µM | > 100 µM | > 100 µM | > 100 µM | > 100 µM | > 100 µM | > 100 | > 100 | > 100 µM | > 100 µM | > 100 µM | > 100 µM | > 100 µM |  |  |  |  |  | 
COc1cc(C2c3cc4c(cc3OC(NNC(N)=S)C2C)OCO4)cc(OC)c1OC (stereo unspecified) | > 80.7 µM | > 100 µM | > 100 µM | > 100 µM | > 100 µM | > 100 µM | 7.9 µM | > 100 | 1.42 | 0.847 µM | 1.24 µM | > 51.9 µM | > 35.6 µM | > 42.9 µM |  |  |  |  |  | 
N=S(c1ccccc1[N+](=O)[O-])c1ccccc1[N+](=O)[O-] | 3.28 µM and 3.58 µM | 3.22 µM and 3.61 µM | 1.68 µM and 2.58 µM | 2.05 µM and 1.11 µM | 22.5 µM and 20.9 µM | 11 µM and 20.8 µM | 4.02 µM and 4.39 µM | 7.29 |  | 4.47 µM and 18.8 µM | 1.2 µM and 1.1 µM | 8.88 µM and 16.4 µM | 7.31 µM and 16.7 µM | 27.7 µM and 29.5 µM | 2.19 | 3.93 | 14.5 µM and 16 µM |  |  | 
COc1ccc(OC2(c3cc(OC)ccc3OC)OC(=O)c3ccccc32)cc1 (stereo unspecified) | > 100 µM | > 100 µM | > 100 µM | > 100 µM | > 100 µM | > 100 µM | > 100 µM | > 100 | > 100 | > 100 µM | > 100 µM | > 100 µM | > 100 µM | > 100 µM |  |  |  |  |  | 
COc1cccc(C2=NC(C(C)C)CO2)c1OC (stereo unspecified) |  | > 100 µM | > 100 µM | > 100 µM | > 100 µM | > 100 µM | > 100 µM | > 100 |  | > 100 µM | > 100 µM | > 100 µM | > 100 µM |  |  |  |  |  |  | 
N#C/C(c1nc2ccccc2[nH]1)=c1\s/c(=C/c2ccccc2)c(=O)n1-c1ccccc1 | > 100 µM | > 100 µM | > 100 µM | > 100 µM | > 100 µM | > 100 µM | > 100 µM | > 100 | > 100 | > 100 µM | > 100 µM | > 100 µM | > 100 µM | > 100 µM |  |  |  |  |  | 
CC1(O)CC2C(CC1SC1CC3C(CC1(C)O)C3(C)C)C2(C)C (stereo unspecified) | > 100 µM | > 100 µM |  | 94.1 µM |  | 83.9 µM | > 100 µM | > 100 |  | > 100 µM |  | > 100 µM | > 100 µM | > 100 µM |  |  |  |  |  | 
COc1cc2c(c(OC)c1OC)-c1ccc(SC)c(=O)cc1[C@@H](NC(=O)c1cccc([N+](=O)[O-])c1)CC2 | 0.0439 µM and 0.117 µM | > 100 µM |  | > 100 µM |  | 27.3 µM |  | > 100 | 0.0732 |  |  |  | > 100 µM | 0.0577 µM |  |  |  | 0.0268 | 0.00851 | 
O=C1C(Cl)C(c2ccccc2Cl)N1n1cnc2ccccc2c1=O (stereo unspecified) | > 100 µM | > 100 µM | > 100 µM | > 100 µM | > 100 µM | > 100 µM |  | > 100 | > 100 | > 100 µM | 85.2 µM | > 100 µM | > 100 µM | > 100 µM |  |  |  |  |  | 
CCOC(=O)c1cc(=O)c2cccc3c2n1CCS3 | > 100 µM | > 100 µM | > 100 µM |  | > 100 µM | > 100 µM | > 100 µM |  |  |  | > 100 µM | > 100 µM | > 100 µM | > 100 µM |  |  |  |  |  | > 100
CCOC(=O)C1CCCc2sc(N)c(C#N)c21 (stereo unspecified) | > 100 µM | > 100 µM |  |  | > 100 µM | > 100 µM | > 100 µM | > 100 | > 100 | > 100 µM |  | > 100 µM | > 100 µM | > 100 µM |  |  |  |  |  | 
COc1ccccc1NC1Oc2cc3c(cc2C(c2cc(OC)c(OC)c(OC)c2)C1C)OCO3 (stereo unspecified) | > 33.1 µM | > 100 µM | > 100 µM | > 78.5 µM | > 100 µM | > 100 µM | > 22.8 µM | 12.5 |  | 21 µM | 4.82 µM | > 100 µM | 29.4 µM | 51.2 µM |  |  |  |  |  | 
CCc1cccc(C(C)C)c1NC(=O)/C(=N\NC(N)=O)C(C(=O)OC)c1cnc2ccccc2n1 (stereo unspecified) | 86.6 µM | > 100 µM | > 100 µM | > 100 µM | > 100 µM | > 100 µM |  | > 100 | > 100 |  | 71.9 µM | > 100 µM | > 100 µM | > 100 µM |  |  |  |  |  | 
Cc1cc(N(CCC#N)CCC#N)ccc1/C=C1N=C(/C=C\c2ccccc2)N(NC(=O)CC(=O)Nc2ccccc2Cl)C\1=O | > 100 µM | > 100 µM | > 100 µM | > 100 µM | > 100 µM |  | > 100 µM | > 100 |  | > 100 µM | > 100 µM | > 100 µM | > 100 µM | > 100 µM |  |  |  |  |  | 
CCOC(=O)C(C)NC(=O)NC12CC3CC(CC(F)(C3)C1)C2 (stereo unspecified) | > 100 µM | > 100 µM | > 100 µM |  | > 100 µM | > 100 µM | 56.2 µM | > 100 |  | > 100 µM | > 100 µM | > 100 µM | > 100 µM | > 100 µM |  |  |  |  |  | 
CC(C)N(C(=O)C12C3C4C5C3C1(C(=O)O)C5C42)C(C)C (stereo unspecified) | > 100 µM | > 100 µM | > 100 µM | > 100 µM | > 100 µM | > 100 µM | > 100 µM | > 100 |  | > 100 µM | > 100 µM | > 100 µM | > 100 µM | > 100 µM |  |  |  |  |  | 
CCOC(=O)C(=[N+]=[N-])C(=O)CSC#N | > 100 µM | 55.3 µM | 61.9 µM | > 100 µM | > 100 µM | > 100 µM |  |  |  |  | 79.4 µM | > 100 µM | > 100 µM | > 100 µM |  |  |  |  |  | > 100
Cc1csc2nc(-c3cccc([N+](=O)[O-])c3)c(/C=N/N=C(N)N)n12 | 3.3 µM | 3.63 µM |  | 3.19 µM |  | 2.96 µM | 1.37 µM |  |  |  | 3.26 µM | 3.1 µM | 4.86 µM | 3.4 µM |  |  |  |  |  | 3.03

Source: PubChem BioAssay (NCI)
